Assay results reported in patent US20220370440A1 (Lead Discovery Center GmbH, priority 2018, published 2022).

Key:
[1] = molecular target: Her2 Exon 20 INSYVMA Ba/F3 (Homo sapiens, UniProt P04626, DUP772-775, cells depend on it); experiment: Her2 Exon 20 INSYVMA Ba/F3 CellTiter-Glo; format: cell-based; conditions: CellTiter-Glo, 72 h, read-out: Her2 Exon 20 INSYVMA Ba/F3 CTG IC50
Description: (§1) 2. Measurement of Cellular Activity
(§2) The CellTiter-Glo Luminescent Cell Viability Assay (Promega) is a homogeneous method of determining the number of viable cells in culture. It is based on quantification of ATP, indicating the presence of metabolically active cells. Cells are seeded on day 1 at cell numbers that assure assay linearity and optimal signal intensity. After incubation for 24 h in humidified chambers at 37° C. and 5% CO2, compounds in DMSO are added at different concentrations. Cells are further incubated for 72 h at 37° C. and 5% CO2. Cells treated with the compound vehicle DMSO are used as positive controls and cells treated with 10 μM Staurosporine serve as negative controls. At day 5 the CellTiter Glo Reagent is prepared according to the instructions of the kit (Promega Inc.): Reagent is mixed 1:1 with cell culture medium. Thereon, mixture and assay plates are equilibrated at room temperature for 20 min. Equal volumes of the reagent-medium-mixture is added to the volume of culture medium present in each well. The plates are mixed at ˜200 rpm for 2 minutes on an orbital shaker. The microplates are then incubated at room temperature for 10 minutes for stabilization of the luminescent signal. Following incubation the luminescence is recorded on a Victor microplate reader (Perkin Elmer) using a 200 ms integration time. The data is then analyzed with Excel using the XLFIT Plugin (dose response Fit 205) for IC50-determination. As quality control the Z′-factor is calculated from 16 positive and negative control values. Only assay results showing a Z′-factor ≥0.5 are used for further analysis.
(§3) Inhibition is indicated as IC50 [nM] (“−”=not measured). Compounds having an activity designated as “A” provided an IC50≤100 nM; compounds having an activity designated as “B” provided an 100 nM<IC50≤500 nM; compounds having an activity designated as “C” provided an 500 nM<IC50≤1000 nM; compounds having an activity designated as “D” provided an 1000 nM<IC50≤10000 nM; and compounds having an activity designated as “E” provided an IC50>10000 nM.

EGFR T790ML858R = EGFR T790ML858R (Homo sapiens, UniProt P00533, L858R/T790M); experiment: EGFR T790ML858R Lance assay; format: biochemical
EGFR T790ML858R, sequence (P00533 25-1210 T790M/L858R): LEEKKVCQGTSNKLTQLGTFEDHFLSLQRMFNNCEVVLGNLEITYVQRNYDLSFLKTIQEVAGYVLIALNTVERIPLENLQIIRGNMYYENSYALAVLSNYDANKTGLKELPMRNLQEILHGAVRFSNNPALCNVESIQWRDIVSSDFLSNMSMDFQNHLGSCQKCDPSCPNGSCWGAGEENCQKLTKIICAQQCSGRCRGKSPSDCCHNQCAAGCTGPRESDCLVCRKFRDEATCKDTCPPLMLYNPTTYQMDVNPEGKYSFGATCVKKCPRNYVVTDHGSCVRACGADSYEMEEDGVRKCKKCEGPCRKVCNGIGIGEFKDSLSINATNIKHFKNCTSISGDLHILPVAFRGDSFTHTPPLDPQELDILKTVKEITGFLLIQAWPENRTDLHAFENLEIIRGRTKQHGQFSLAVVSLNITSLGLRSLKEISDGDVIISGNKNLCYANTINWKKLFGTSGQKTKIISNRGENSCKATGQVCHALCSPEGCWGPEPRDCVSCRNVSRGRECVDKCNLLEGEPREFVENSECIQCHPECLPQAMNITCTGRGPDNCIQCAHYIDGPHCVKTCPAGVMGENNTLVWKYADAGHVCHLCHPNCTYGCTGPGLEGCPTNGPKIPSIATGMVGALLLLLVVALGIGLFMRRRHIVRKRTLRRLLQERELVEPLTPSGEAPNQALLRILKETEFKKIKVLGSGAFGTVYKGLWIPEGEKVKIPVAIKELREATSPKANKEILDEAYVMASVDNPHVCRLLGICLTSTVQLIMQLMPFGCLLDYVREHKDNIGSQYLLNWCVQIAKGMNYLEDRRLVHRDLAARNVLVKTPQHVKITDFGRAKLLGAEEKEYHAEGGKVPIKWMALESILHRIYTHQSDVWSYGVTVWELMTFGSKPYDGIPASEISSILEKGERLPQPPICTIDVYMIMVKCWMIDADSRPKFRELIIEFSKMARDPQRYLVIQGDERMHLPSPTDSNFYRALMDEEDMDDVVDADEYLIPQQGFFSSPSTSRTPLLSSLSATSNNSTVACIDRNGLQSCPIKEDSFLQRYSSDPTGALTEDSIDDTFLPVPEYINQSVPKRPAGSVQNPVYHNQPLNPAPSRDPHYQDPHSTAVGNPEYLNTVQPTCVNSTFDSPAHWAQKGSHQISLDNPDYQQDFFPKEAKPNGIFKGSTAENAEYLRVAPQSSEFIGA
Description: (§4) Inhibition is indicated as […] [nM] (“−”=not measured). Compounds having an activity designated as “A” provided an IC50≤100 nM; compounds having an activity designated as “B” provided an 100 nM<IC50≤500 nM; compounds having an activity designated as “C” provided an 500 nM<IC50≤1000 nM; compounds having an activity designated as “D” provided an 1000 nM<IC50≤100000 nM; and compounds having an activity designated as “E” provided an IC50>10000 nM.

H1975 = H1975 CellTiter-Glo; format: cell-based; conditions: Homo sapiens, NCI-H1975; 72 h compound incubation; read-out: H1975 CTG IC50
Description: as §1, §2, §4

EGFR wt = EGFR wt (Homo sapiens, UniProt P00533); experiment: EGFR wt Lance assay; format: biochemical
Description: as §4

[2] = molecular target: EGFR Exon 20 INSNPH Ba/F3 (Homo sapiens, UniProt P00533, DUP771-773, cells depend on it); experiment: EGFR Exon 20 INSNPH Ba/F3 CellTiter-Glo; format: cell-based; conditions: CellTiter-Glo, 72 h, read-out: EGFR Exon 20 INSNPH Ba/F3 CTG IC50
EGFR Exon 20 INSNPH Ba/F3, sequence (P00533 with tags, fused parts or gaps DUP771-773): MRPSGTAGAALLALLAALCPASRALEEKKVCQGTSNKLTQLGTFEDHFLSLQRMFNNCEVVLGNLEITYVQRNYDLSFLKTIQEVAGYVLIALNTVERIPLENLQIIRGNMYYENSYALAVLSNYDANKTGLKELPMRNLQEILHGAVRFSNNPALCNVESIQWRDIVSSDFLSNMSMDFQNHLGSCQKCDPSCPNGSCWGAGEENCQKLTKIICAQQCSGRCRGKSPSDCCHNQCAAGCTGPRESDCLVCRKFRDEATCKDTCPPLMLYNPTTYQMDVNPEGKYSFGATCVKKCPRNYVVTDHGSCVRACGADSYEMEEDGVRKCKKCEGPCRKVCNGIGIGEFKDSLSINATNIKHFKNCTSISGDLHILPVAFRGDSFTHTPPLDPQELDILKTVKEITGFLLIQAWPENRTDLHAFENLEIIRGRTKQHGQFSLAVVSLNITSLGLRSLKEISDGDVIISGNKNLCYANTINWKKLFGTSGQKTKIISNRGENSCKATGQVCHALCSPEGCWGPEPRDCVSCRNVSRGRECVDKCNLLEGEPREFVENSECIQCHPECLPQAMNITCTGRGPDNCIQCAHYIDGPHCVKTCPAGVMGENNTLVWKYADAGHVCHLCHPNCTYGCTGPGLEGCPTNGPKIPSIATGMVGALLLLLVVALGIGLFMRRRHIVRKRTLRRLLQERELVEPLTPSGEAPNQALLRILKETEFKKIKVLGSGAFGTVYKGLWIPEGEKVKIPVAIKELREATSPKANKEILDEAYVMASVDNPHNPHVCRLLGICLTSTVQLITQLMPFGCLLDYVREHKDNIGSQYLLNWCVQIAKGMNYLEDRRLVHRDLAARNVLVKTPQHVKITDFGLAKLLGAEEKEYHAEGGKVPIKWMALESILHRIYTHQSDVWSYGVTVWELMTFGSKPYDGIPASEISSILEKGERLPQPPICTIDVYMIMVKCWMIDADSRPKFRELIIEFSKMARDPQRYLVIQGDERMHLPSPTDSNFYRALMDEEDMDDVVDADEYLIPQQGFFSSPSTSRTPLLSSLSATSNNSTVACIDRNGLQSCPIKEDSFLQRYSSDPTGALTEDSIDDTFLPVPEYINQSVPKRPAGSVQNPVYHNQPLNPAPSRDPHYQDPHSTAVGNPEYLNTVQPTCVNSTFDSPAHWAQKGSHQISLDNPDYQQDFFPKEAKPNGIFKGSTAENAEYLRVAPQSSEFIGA
Description: as §1, §2, §3

HER2 INS YVMA = molecular target: T1, HER2 INS YVMA (Homo sapiens, UniProt P04626, INS775YVMA); experiment: Lance Kinase Activity Assay, HER2 INS YVMA (Her2 Exon 20 INSYVMA Lance); format: biochemical; conditions: biochemical Lance assay
T1 construct: purchased DPF
T1 sequence (P04626 with tags, fused parts or gaps INS775YVMA): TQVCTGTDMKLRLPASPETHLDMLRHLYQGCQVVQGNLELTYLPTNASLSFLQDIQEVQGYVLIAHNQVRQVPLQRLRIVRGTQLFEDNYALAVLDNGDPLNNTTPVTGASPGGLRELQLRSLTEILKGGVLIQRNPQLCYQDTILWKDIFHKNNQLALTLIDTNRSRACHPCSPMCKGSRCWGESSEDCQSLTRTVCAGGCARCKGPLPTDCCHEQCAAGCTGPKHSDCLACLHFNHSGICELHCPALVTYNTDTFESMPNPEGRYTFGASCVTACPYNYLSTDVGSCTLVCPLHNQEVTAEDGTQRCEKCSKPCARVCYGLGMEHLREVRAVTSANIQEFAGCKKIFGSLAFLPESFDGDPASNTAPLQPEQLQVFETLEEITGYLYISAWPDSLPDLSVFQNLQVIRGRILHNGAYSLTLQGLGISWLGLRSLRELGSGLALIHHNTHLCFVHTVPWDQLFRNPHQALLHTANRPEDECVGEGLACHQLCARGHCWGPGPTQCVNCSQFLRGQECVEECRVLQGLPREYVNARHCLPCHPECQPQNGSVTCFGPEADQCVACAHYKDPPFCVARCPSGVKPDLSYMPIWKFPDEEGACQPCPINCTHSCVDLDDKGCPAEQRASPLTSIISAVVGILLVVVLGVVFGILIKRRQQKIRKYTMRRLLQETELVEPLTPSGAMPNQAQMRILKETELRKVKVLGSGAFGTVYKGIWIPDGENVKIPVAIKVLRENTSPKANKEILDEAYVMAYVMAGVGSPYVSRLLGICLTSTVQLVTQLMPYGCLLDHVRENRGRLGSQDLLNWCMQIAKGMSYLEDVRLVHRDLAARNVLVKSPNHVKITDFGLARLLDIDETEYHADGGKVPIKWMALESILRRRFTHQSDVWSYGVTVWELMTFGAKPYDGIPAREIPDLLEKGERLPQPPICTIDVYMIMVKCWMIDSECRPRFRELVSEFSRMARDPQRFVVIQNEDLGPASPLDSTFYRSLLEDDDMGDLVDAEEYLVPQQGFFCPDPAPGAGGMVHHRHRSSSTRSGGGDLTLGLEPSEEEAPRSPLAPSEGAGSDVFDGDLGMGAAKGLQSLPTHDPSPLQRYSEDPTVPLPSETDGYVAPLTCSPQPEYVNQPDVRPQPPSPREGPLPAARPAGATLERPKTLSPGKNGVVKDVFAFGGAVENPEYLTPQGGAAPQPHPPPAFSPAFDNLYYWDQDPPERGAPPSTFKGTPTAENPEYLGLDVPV
Description: 1. Measurement of HER2 INS YVMA Kinase Activity
This protocol describes how the Lance Kinase Activity Assay was performed to determine IC50 values of compounds of general formula (I) against HER2 INS YVMA. The principle behind this enzymatic assay is based upon the phosphorylation of the Ulight-peptide substrate. It is detected by using a specific EU-labeled anti-phospho peptide antibody. The binding of the Eu labeled anti-phospho peptide antibody to the phosphorylated ULight labeled peptide gives rise to a FRET-signal.
Binding of an inhibitor to the kinase prevents phosphorylation of the Ulight-substrate, resulting in a loss of FRET. In table 2 is summarized the relevant information for the LANCE assay.
The compounds of general formula (I) summarized in Table 3 were serial diluted from a 10 mM DMSO stock solution 1:3 over 8 steps in a total volume of 20 μl.
For every sample, 8 μl of kinase-substrate mix was transferred into a suitable assay plate (e.g. Corning #3673). Compound was added via pintool transfer (10 nl/well) using a Biomek FX robot (BeckmanCoulter). Reaction was started by addition of 2 μl ATP working solution and mixed using variomag teleshaker (Thermo Fischer Scientific). After 1 h incubation at room temperature the reaction was stopped with 10 μl detection mix containing the Eu-labeled phosphospecific antibody and 10 mM EDTA. After a second incubation period of 1 h at room temperature the FRET signal was measured at 340 nm excitation, 665 nm and 615 nm emission (for the ULight-substrate and Eu-AB, respectively) with an Envision spectrophotometer (Perkin Elmer, Waltham, Mass., USA) with 50 μs delay and 300 μs integration time. IC50 values were determined from the sigmoidal dose response curves with the software Quattro Workflow (Quattro GmbH, Munich, Germany).

A431 = A431 CellTiter-Glo; format: cell-based; conditions: Homo sapiens, A-431; 72 h compound incubation; read-out: A431 CTG IC50
Description: as §1, §2, §4

Her2 Exon 20 INSYVMA Ba/F3, sequence (P04626 with tags, fused parts or gaps DUP772-775): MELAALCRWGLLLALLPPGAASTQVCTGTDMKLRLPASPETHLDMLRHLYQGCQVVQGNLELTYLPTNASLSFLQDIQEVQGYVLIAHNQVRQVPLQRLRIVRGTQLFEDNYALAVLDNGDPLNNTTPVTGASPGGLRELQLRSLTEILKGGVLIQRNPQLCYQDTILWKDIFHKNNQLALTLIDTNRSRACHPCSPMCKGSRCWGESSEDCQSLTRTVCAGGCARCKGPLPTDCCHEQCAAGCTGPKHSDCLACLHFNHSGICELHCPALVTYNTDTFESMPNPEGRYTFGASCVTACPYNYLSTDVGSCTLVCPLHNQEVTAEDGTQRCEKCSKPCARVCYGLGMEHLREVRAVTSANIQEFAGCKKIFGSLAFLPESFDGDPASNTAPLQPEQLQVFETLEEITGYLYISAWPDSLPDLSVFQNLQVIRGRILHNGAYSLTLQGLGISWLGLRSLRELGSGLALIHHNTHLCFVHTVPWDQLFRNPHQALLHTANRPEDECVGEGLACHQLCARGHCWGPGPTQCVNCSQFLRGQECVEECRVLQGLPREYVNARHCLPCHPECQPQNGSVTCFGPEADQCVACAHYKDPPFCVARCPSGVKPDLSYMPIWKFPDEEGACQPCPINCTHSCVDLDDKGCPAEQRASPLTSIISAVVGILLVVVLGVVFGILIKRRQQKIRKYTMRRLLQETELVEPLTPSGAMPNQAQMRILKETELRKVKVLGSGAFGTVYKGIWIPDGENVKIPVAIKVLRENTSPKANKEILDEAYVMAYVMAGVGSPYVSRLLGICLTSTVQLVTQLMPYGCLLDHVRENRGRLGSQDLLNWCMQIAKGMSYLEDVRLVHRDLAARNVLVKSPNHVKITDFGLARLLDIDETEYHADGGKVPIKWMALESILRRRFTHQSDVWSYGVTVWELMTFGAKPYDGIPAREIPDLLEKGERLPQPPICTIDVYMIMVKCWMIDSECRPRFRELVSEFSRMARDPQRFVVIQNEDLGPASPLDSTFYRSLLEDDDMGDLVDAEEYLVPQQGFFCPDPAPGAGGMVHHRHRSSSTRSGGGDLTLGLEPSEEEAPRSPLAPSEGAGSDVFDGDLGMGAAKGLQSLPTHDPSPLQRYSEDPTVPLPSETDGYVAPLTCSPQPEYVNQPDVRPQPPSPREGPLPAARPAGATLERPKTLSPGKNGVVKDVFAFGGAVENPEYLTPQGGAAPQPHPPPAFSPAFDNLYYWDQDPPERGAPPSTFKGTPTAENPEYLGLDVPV

Row | GI50 [1] | IC50 (EGFR T790ML858R) | IC50 (H1975) | IC50 (EGFR wt) | GI50 [2] | IC50 (HER2 INS YVMA) | IC50 (A431) | SMILES
1 | ≤ 100 nM | ≤ 100 nM | 100 to 500 nM | ≤ 100 nM | ≤ 100 nM | ≤ 100 nM | 1000 to 100000 nM | C=CC(=O)Nc1cc(-c2c(-c3ccc(N(C)CCN(C)C)cc3)[nH]c3ncc(C(=O)OC(C)C)c(C)c23)ccc1C [Example 204, isopropyl 3-(3-acrylamido-4-methylphenyl)-2-(4-((2-(dimethylamino)ethyl)(methyl)amino)phenyl)-4-methyl-1H-pyrrolo[2,3-b]pyridine-5-carboxylate]
2 | 100 to 500 nM | ≤ 100 nM | ≤ 100 nM | ≤ 100 nM | 100 to 500 nM | ≤ 100 nM | 100 to 500 nM | C=CC(=O)N1CCc2ccc(-c3c(-c4ccnc(N5CCN(C)CC5)c4)[nH]c4nccc(OCC)c34)cc21 [Example 105]
3 | 500 to 1000 nM | ≤ 100 nM | 500 to 1000 nM | ≤ 100 nM | 500 to 1000 nM | ≤ 100 nM | 1000 to 100000 nM | C=CC(=O)Nc1cc(-c2c(-c3cccc(CN4CCN(C)CC4)c3)[nH]c3ncc(C(=O)OC(C)C)cc23)ccc1C [Example 181, isopropyl 3-(3-acrylamido-4-methylphenyl)-2-(3-((4-methylpiperazin-1-yl)methyl)phenyl)-1H-pyrrolo[2,3-b]pyridine-5-carboxylate]
4 | 100 to 500 nM | ≤ 100 nM | 100 to 500 nM | ≤ 100 nM | 100 to 500 nM | ≤ 100 nM | 1000 to 100000 nM | C=CC(=O)Nc1cc(-c2c(-c3ccc(N4CCN(C)CC4)cc3)[nH]c3ncc(C(=O)OC4CCC4)cc23)ccc1C [Example 136, cyclobutyl 3-(3-acrylamido-4-methylphenyl)-2-(4-(4-methylpiperazin-1-yl)phenyl)-1H-pyrrolo[2,3-b]pyridine-5-carboxylate]
5 | 1000 to 10000 nM | 500 to 1000 nM | 1000 to 100000 nM | ≤ 100 nM | 1000 to 10000 nM | 1000 to 10000 nM | > 10000 nM | C=CC(=O)Nc1cc(-c2c(-c3cccc(N4CCN(C(C)=O)CC4)c3)[nH]c3ncc(C(=O)OC(C)C)cc23)ccc1C [Example 185, isopropyl 2-(3-(4-acetylpiperazin-1-yl)phenyl)-3-(3-acrylamido-4-methylphenyl)-1H-pyrrolo[2,3-b]pyridine-5-carboxylate]
6 | 100 to 500 nM | ≤ 100 nM | 100 to 500 nM | ≤ 100 nM | 100 to 500 nM | ≤ 100 nM | 1000 to 100000 nM | C=CC(=O)Nc1cc(-c2c(-c3ccc(N4CCN(C)CC4)cc3)[nH]c3ncc(OC(F)(F)F)cc23)ccc1C [Example 188, N-(2-methyl-5-(2-(4-(4-methylpiperazin-1-yl)phenyl)-5-(trifluoromethoxy)-1H-pyrrolo[2,3-b]pyridin-3-yl)phenyl)acrylamide 2,2,2-trifluoroacetate]

Further lines, the compound ahead of its results:

Row | SMILES | GI50 [1] | IC50 (EGFR T790ML858R) | IC50 (H1975) | IC50 (EGFR wt) | GI50 [2] | IC50 (HER2 INS YVMA) | IC50 (A431)
7 | C=CC(=O)Nc1cc(-c2c(-c3ccc(N4CCN(C)CC4)cc3)[nH]c3ncc(CC(=O)OC(C)C)cc23)ccc1C [Example 190, isopropyl 2-(3-(3-acrylamido-4-methylphenyl)-2-(4-(4-methylpiperazin-1-yl)phenyl)-1H-pyrrolo[2,3-b]pyridin-5-yl)acetate 2,2,2-trifluoroacetate] | 100 to 500 nM | ≤ 100 nM | 100 to 500 nM | ≤ 100 nM | 100 to 500 nM | ≤ 100 nM | 1000 to 100000 nM
8 | C#CC(=O)Nc1cc(-c2c(-c3ccc(N4CCN(C)CC4)cc3)[nH]c3nccc(Cl)c23)ccc1C [Example 144, N-(5-(4-chloro-2-(4-(4-methylpiperazin-1-yl)phenyl)-1H-pyrrolo[2,3-b]pyridin-3-yl)-2-methylphenyl)propiolamide 2,2,2-trifluoroacetate] | 1000 to 10000 nM | ≤ 100 nM | 1000 to 100000 nM | ≤ 100 nM | 1000 to 10000 nM | ≤ 100 nM | 1000 to 100000 nM
9 | C=CC(=O)Nc1cc(-c2c(-c3ccc(N4CCN(C)CC4)cc3)[nH]c3ncc(CC(=O)N(C)C)cc23)ccc1C [Example 194, N-(5-(5-(2-(dimethylamino)-2-oxoethyl)-2-(4-(4-methylpiperazin-1-yl)phenyl)-1H-pyrrolo[2,3-b]pyridin-3-yl)-2-methylphenyl)acrylamide 2,2,2-trifluoroacetate] | 1000 to 10000 nM | ≤ 100 nM | 1000 to 100000 nM | ≤ 100 nM | 1000 to 10000 nM | ≤ 100 nM | 1000 to 100000 nM
10 | C=CC(=O)Nc1cc(-c2c(-c3ccc(N4CCN(C)CC4)cc3)[nH]c3ncc(C(=O)NCc4nc5ccccc5[nH]4)cc23)ccc1C [Example 125, N-((1H-benzo[d]imidazol-2-yl)methyl)-3-(3-acrylamido-4-methylphenyl)-2-(4-(4-methylpiperazin-1-yl)phenyl)-1H-pyrrolo[2,3-b]pyridine-5-carboxamide] | 1000 to 10000 nM | 100 to 500 nM | 100 to 500 nM | ≤ 100 nM | 1000 to 10000 nM | 1000 to 10000 nM | 1000 to 100000 nM
11 | C=CC(=O)Nc1cc(-c2c(-c3ccc(CCO)cc3)[nH]c3ncc(C(=O)OC(C)C)cc23)ccc1C [Example 168, isopropyl 3-(3-acrylamido-4-methylphenyl)-2-(4-(2-hydroxyethyl)phenyl)-1H-pyrrolo[2,3-b]pyridine-5-carboxylate] | 500 to 1000 nM | 100 to 500 nM | 1000 to 100000 nM | ≤ 100 nM | 500 to 1000 nM | 100 to 500 nM | 1000 to 100000 nM
12 | C=CC(=O)Nc1cc(-c2c(-c3ccc(N4CCN(C)CC4)cc3)[nH]c3ncc(C(=O)NCc4cccc(NC(C)=O)c4)cc23)ccc1C [Example 121, N-(3-acetamidobenzyl)-3-(3-acrylamido-4-methylphenyl)-2-(4-(4-methylpiperazin-1-yl)phenyl)-1H-pyrrolo[2,3-b]pyridine-5-carboxamide] | > 10000 nM | 100 to 500 nM | > 10000 nM | ≤ 100 nM | > 10000 nM | ≤ 100 nM | > 10000 nM
13 | C=CC(=O)Nc1cc(-c2c(-c3ccnc(N4CCOCC4)c3)[nH]c3ncc(C(=O)OC(C)C)cc23)ccc1C [Example 166, isopropyl 3-(3-acrylamido-4-methylphenyl)-2-(2-morpholinopyridin-4-yl)-1H-pyrrolo[2,3-b]pyridine-5-carboxylate] | 1000 to 10000 nM | 100 to 500 nM | 1000 to 100000 nM | ≤ 100 nM | 1000 to 10000 nM | 500 to 1000 nM | 1000 to 100000 nM
